Measured values published in US8575157B2, “Cyclic inhibitors of 11beta-hydroxysteroid dehydrogenase 1” (Vitae Pharmaceuticals, Inc., priority 2010, dated 2013).
Values joined by “and” are separate entries in the source; they are usually repeats but may differ in a detail not shown here. Equal values may be shown once. Read-outs that look alike come from different tables or passages of the source.

What was measured:
11β-HSD1 [1] = target: T1, 11β-HSD1 (Homo sapiens (Human), UniProt P28845)
[2] = fraction unbound in human plasma (equilibrium dialysis), Biological Test Example 5; format: in vitro ADME; conditions: for Biological Test Example 5 (%): fraction unbound in human plasma
[3] = target: human recombinant cytochrome P450 3A4 (Homo sapiens (Human), UniProt P08684); test: CYP3A4 inhibition, Biological Test Example 6; format: in vitro ADME
[4] = target: human recombinant cytochrome P450 2C19 (Homo sapiens (Human), UniProt P33261); test: CYP2C19 inhibition, Biological Test Example 8; format: in vitro ADME; conditions: read-out: Biological Test Example 8 CYP2C19, IC50
[5] = target: human recombinant cytochrome P450 2C9 (Homo sapiens (Human), UniProt P11712); test: CYP2C9 inhibition ([O-methyl-14C]-Naproxen), Biological Test Example 7; format: in vitro ADME
human CYP2C9 = human CYP2C9 (Homo sapiens (Human), UniProt P11712); test: CYP2C9 inhibition (Invitrogen kit, OOMR fluorogenic substrate), Biological Test Example 9; format: in vitro ADME; conditions: read-out: Biological Test Example 9 CYP2C9 IC50
11β-HSD1 [6] = target: T1, 11β-HSD1; format: biochemical; conditions: human liver microsomes, 100% indicates no inhibition, zero or below zero indicates complete inhibition
[7] = human recombinant CYP2C19, [N-methyl-14C]-Diazepam
[8] = Invitrogen kit, OOMR fluorogenic substrate

Sequence of human recombinant cytochrome P450 2C9 (P11712 whole entry): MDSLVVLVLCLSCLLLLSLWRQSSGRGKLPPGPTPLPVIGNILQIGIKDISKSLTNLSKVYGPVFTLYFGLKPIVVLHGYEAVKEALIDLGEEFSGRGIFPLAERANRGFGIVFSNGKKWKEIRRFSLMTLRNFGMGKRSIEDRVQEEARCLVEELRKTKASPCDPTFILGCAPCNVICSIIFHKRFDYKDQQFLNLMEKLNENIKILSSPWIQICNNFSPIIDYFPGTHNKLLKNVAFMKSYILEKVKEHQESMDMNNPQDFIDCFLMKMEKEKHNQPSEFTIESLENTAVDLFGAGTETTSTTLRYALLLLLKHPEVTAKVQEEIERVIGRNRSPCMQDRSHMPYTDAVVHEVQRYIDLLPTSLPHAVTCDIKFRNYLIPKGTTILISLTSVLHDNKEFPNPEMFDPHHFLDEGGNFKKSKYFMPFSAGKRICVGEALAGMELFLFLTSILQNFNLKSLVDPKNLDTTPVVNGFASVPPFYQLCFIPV
Sequence of human CYP2C9 (P11712 whole entry): as above
Sequence of human recombinant cytochrome P450 2C19 (P33261 whole entry): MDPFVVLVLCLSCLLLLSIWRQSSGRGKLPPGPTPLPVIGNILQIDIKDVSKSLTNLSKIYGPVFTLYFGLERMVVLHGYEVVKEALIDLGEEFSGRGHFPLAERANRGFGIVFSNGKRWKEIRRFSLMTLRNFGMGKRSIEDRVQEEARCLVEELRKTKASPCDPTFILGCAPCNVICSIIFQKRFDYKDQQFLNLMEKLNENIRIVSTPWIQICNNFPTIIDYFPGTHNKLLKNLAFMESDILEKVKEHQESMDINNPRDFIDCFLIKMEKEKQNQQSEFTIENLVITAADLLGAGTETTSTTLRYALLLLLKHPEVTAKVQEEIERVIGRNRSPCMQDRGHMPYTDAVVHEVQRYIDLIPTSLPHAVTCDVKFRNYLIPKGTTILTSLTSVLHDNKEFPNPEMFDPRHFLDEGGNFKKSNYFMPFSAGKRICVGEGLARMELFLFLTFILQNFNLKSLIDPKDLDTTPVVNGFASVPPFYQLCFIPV
Sequence of human recombinant cytochrome P450 3A4 (P08684 whole entry): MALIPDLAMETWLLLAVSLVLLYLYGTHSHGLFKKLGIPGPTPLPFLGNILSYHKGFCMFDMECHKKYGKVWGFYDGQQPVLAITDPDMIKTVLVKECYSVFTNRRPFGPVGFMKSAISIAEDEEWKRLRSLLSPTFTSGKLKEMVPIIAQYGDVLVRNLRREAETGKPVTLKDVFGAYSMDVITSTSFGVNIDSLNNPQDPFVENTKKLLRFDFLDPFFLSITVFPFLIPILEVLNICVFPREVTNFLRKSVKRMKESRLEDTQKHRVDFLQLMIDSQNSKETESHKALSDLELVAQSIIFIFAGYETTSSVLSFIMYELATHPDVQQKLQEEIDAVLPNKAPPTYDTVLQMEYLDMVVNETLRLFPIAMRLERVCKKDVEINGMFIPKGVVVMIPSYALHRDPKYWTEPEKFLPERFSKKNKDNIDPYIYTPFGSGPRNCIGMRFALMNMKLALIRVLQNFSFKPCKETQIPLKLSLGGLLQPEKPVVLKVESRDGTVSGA
T1 sequence (P28845 whole entry): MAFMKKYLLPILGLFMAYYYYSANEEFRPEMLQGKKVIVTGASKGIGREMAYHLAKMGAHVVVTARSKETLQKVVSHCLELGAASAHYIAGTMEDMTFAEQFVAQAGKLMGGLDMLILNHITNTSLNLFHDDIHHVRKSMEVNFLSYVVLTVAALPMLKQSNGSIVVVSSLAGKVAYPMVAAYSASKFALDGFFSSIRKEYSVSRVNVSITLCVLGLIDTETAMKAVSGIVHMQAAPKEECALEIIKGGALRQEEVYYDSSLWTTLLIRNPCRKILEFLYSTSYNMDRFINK

C[C@@H](c1ccc(-c2ccn(C3CC3)c(=O)c2)cc1)N1CCC(CC(C)(C)O)(C2CCOCC2)OC1=O (single isomer, unassigned) [Example 91 Isomer 2]
Average % inhibition at 100 nM (11β-HSD1 [1]; Biological Test Example 1): 13.8%

C[C@@H](c1ccc(-c2ccn(C3CC3)c(=O)c2)cc1)N1CCC(CC(C)(C)C)(CC(C)(C)O)OC1=O (single isomer, unassigned) [Example 94 Isomer 1]
Average % inhibition at 100 nM (11β-HSD1 [1]; Biological Test Example 1, listed as EXAMPLE 94 Isomer 1): 41.9%

C[C@@H](c1ccc(-c2ccn(C3CC3)c(=O)c2)cc1)N1CCC(CC(C)(C)C)(CC(C)(C)O)OC1=O (single isomer, unassigned) [Example 94 Isomer 2]
Average % inhibition at 100 nM (11β-HSD1 [1]; Biological Test Example 1, listed as EXAMPLE 94 Isomer 2): 8.2%

C[C@@H](c1ccc(-c2ccn(C3CC3)c(=O)c2)cc1)N1CCC(CC(C)(C)O)(C2CC(F)(F)C2)OC1=O (single isomer, unassigned) [Example 95 Isomer 2]
Average % inhibition at 100 nM (11β-HSD1 [1]; Biological Test Example 1): 8.0%

C[C@@H](c1ccc(-c2ccc(=O)n(C)c2)cc1)N1CC[C@](CC(C)(C)NS(C)(=O)=O)(c2ccccc2)OC1=O [Example 11, N-(2-methyl-1-((S)-3-((S)-1-(4-(1-methyl-6-oxo-1,6-dihydropyridin-3-yl)phenyl)ethyl)-2-oxo-6-phenyl-1,3-oxazinan-6-yl)propan-2-yl)methanesulfonamide]
Biological Test Example 5 (fraction unbound in human plasma) [2]: 0.7%
IC50 ([3]; human recombinant CYP3A4): 14.1 µM

C[C@@H](c1ccc(-c2ccc(=O)n(C)c2)cc1)N1CC[C@](CC(C)(C)N(C)S(C)(=O)=O)(c2ccccc2)OC1=O [Example 12, N-methyl-N-(2-methyl-1-((S)-3-((S)-1-(4-(1-methyl-6-oxo-1,6-dihydropyridin-3-yl)phenyl)ethyl)-2-oxo-6-phenyl-1,3-oxazinan-6-yl)propan-2-yl)methanesulfonamide]
Biological Test Example 5 (fraction unbound in human plasma) [2]: 0.4%
IC50 ([3]; human recombinant CYP3A4): 4.9 µM
IC50 (human CYP2C9; [8]): 2.5 µM

C[C@@H](c1ccc(-c2ccn(C)c(=O)c2)cc1)N1CC[C@](CC(C)(C)NS(C)(=O)=O)(c2ccccc2)OC1=O [Example 13, N-(2-methyl-1-((S)-3-((S)-1-(4-(1-methyl-2-oxo-1,2-dihydropyridin-4-yl)phenyl)ethyl)-2-oxo-6-phenyl-1,3-oxazinan-6-yl)propan-2-yl)methanesulfonamide]
IC50 ([3]; human recombinant CYP3A4): 4.4 µM
IC50 ([5]; human recombinant CYP2C9): 5.6 µM
IC50 [4, 7]: < 0.4 µM
IC50 (human CYP2C9; [8]): 7.3 µM

C[C@@H](c1ccc(-c2cc[nH]c(=O)c2)cc1)N1CC[C@](CC(C)(C)C#N)(c2ccccc2)OC1=O [Example 14, 2,2-dimethyl-3-((R)-2-oxo-3-((S)-1-(4-(2-oxo-1,2-dihydropyridin-4-yl)phenyl)ethyl)-6-phenyl-1,3-oxazinan-6-yl)propanenitrile]
IC50 ([3]; human recombinant CYP3A4): 19.7 µM
IC50 ([5]; human recombinant CYP2C9): 25.9 µM
IC50 [4, 7]: 6.4 µM
IC50 (human CYP2C9; [8]): 24.6 µM

C[C@@H](c1ccc(-c2ccc(=O)[nH]c2)cc1)N1CC[C@](CC(C)(C)C#N)(c2ccc(F)cc2)OC1=O [Example 15, 3-((R)-6-(4-fluorophenyl)-2-oxo-3-((S)-1-(4-(6-oxo-1,6-dihydropyridin-3-yl)phenyl)ethyl)-1,3-oxazinan-6-yl)-2,2-dimethylpropanenitrile]
IC50 ([3]; human recombinant CYP3A4): 3.1 µM
IC50 ([5]; human recombinant CYP2C9): 7.7 µM
IC50 [4, 7]: < 0.4 µM
IC50 (human CYP2C9; [8]): 9.5 µM

C[C@@H](c1ccc(-c2ccn(C)c(=O)c2)cc1)N1CC[C@](CC(C)(C)O)(c2ccccc2)OC1=O [Example 48, (S)-6-(2-hydroxy-2-methylpropyl)-3-((S)-1-(4-(1-methyl-2-oxo-1,2-dihydropyridin-4-yl)phenyl)ethyl)-6-phenyl-1,3-oxazinan-2-one]
Biological Test Example 5 (%) [2]: 8.7%
IC50 [3]: > 50 µM
IC50 [5]: > 50 µM
IC50 [4]: > 50 µM
IC50 (human CYP2C9): 30 µM

CC[C@@H](c1ccc(-c2ccc(=O)n(CC)c2)cc1)N1CC[C@](CC(C)(C)O)(c2ccccc2)OC1=O [Example 52, (S)-3-((S)-1-(4-(1-ethyl-6-oxo-1,6-dihydropyridin-3-yl)phenyl)propyl)-6-(2-hydroxy-2-methylpropyl)-6-phenyl-1,3-oxazinan-2-one]
Biological Test Example 5 (%) [2]: 9.0%

CCn1cc(-c2ccc([C@H](C)N3CC[C@](CC(C)(C)O)(c4ccccc4)OC3=O)cc2)ccc1=O [Example 53, (S)-3-((S)-1-(4-(1-ethyl-6-oxo-1,6-dihydropyridin-3-yl)phenyl)ethyl)-6-(2-hydroxy-2-methylpropyl)-6-phenyl-1,3-oxazinan-2-one]
IC50 [3]: > 50 µM
IC50 [5]: > 50 µM
IC50 [4]: > 50 µM
IC50 (human CYP2C9): 30 µM

CC[C@@H](c1ccc(-c2ccc(=O)n(C)c2)cc1)N1CC[C@](CC(C)(C)O)(c2ccccc2)OC1=O [Example 54, (S)-6-(2-hydroxy-2-methylpropyl)-3-((S)-1-(4-(1-methyl-6-oxo-1,6-dihydropyridin-3-yl)phenyl)propyl)-6-phenyl-1,3-oxazinan-2-one]
Biological Test Example 5 (%) [2]: 9.1%
IC50 [3]: > 50 µM
IC50 [5]: > 50 µM

CC[C@@H](c1ccc(-c2ccn(C)c(=O)c2)cc1)N1CC[C@](CC(C)(C)O)(c2ccccc2)OC1=O [Example 55, (S)-6-(2-hydroxy-2-methylpropyl)-3-((S)-1-(4-(1-methyl-2-oxo-1,2-dihydropyridin-4-yl)phenyl)propyl)-6-phenyl-1,3-oxazinan-2-one]
Biological Test Example 5 (%) [2]: 7.1%

C[C@@H](c1ccc(-c2ccn(CC(F)(F)F)c(=O)c2)cc1)N1CC[C@](CC(C)(C)O)(c2ccccc2)OC1=O [Example 66, (S)-6-(2-hydroxy-2-methylpropyl)-3-((S)-1-(4-(2-oxo-1-(2,2,2-trifluoroethyl)-1,2-dihydropyridin-4-yl)phenyl)ethyl)-6-phenyl-1,3-oxazinan-2-one]
Biological Test Example 5 (%) [2]: 5.5%

C[C@@H](c1ccc(-c2ccc(=O)n(CC3CC3)c2)cc1)N1CC[C@](CC(C)(C)O)(c2ccccc2)OC1=O [Example 76, 3-{(S)-1-[4-(1-Cyclopropylmethyl-6-oxo-1,6-dihydro-pyridin-3-yl)-phenyl]-ethyl}-(S)-6-(2-hydroxy-2-methyl-propyl)-6-phenyl-[1,3]oxazinan-2-one]
Average % control inhibition at 100 nM (11β-HSD1 [6]): 17 % control

COC[C@]1(c2ccccc2)CCN([C@@H](C)c2ccc(-c3ccn(C)c(=O)c3)cc2)C(=O)O1 [Example 78, (R)-6-Methoxymethyl-3-{(S)-1-[4-(1-methyl-2-oxo-1,2-dihydro-pyridin-4-yl)-phenyl]-ethyl}-6-phenyl-[1,3]oxazinan-2-one]
Average % control inhibition at 100 nM (11β-HSD1 [6]): 58 % control

C[C@@H](c1ccc(-c2cc(=O)n(C)cc2F)cc1)N1CC[C@](CC(C)(C)O)(c2ccccc2)OC1=O [Example 79, 3-{(S)-1-[4-(5-Fluoro-1-methyl-2-oxo-1,2-dihydro-pyridin-4-yl)-phenyl]-ethyl}-(S)-6-(2-hydroxy-2-methyl-propyl)-6-phenyl-[1,3]oxazinan-2-one]
Average % control inhibition at 100 nM (11β-HSD1 [6]): 15 % control
IC50 [3]: > 50 µM
IC50 [5]: > 50 µM
IC50 [4]: > 50 µM

C[C@@H](c1ccc(-c2ccn(CC(C)(C)O)c(=O)c2)cc1)N1CC[C@](CC(C)(C)O)(c2ccccc2)OC1=O [Example 80, (S)-6-(2-Hydroxy-2-methyl-propyl)-3-((S)-1-{4-[1-(2-hydroxy-2-methyl-propyl)-2-oxo-1,2-dihydro-pyridin-4-yl]-phenyl}-ethyl)-6-phenyl-[1,3]oxazinan-2-one]
Average % control inhibition at 100 nM (11β-HSD1 [6]): 37 % control
IC50 [3]: > 50 µM
IC50 [5]: > 50 µM

COCC(C)Cn1ccc(-c2ccc([C@H](C)N3CC[C@](CC(C)(C)O)(c4ccccc4)OC3=O)cc2)cc1=O (stereo partly drawn) [Example 81, (S)-6-(2-Hydroxy-2-methyl-propyl)-3-((S)-1-{4-[1-(3-methoxy-2-methyl-propyl)-2-oxo-1,2-dihydro-pyridin-4-yl]-phenyl}-ethyl)-6-phenyl-[1,3]oxazinan-2-one]
Average % control inhibition at 100 nM (11β-HSD1 [6]): 11 % control

CC(CO)Cn1ccc(-c2ccc([C@H](C)N3CC[C@](CC(C)(C)O)(c4ccccc4)OC3=O)cc2)cc1=O (stereo partly drawn) [Example 82, (S)-6-(2-Hydroxy-2-methyl-propyl)-3-((S)-1-{4-[1-(3-hydroxy-2-methyl-propyl)-2-oxo-1,2-dihydro-pyridin-4-yl]-phenyl}-ethyl)-6-phenyl-[1,3]oxazinan-2-one]
Average % control inhibition at 100 nM (11β-HSD1 [6]): −12 % control

COC(C)(C)Cn1ccc(-c2ccc([C@H](C)N3CC[C@](CC(C)(C)O)(c4ccccc4)OC3=O)cc2)cc1=O [Example 83, (S)-6-(2-Hydroxy-2-methyl-propyl)-3-(1-{4-[1-(2-methoxy-2-methyl-propyl)-2-oxo-1,2-dihydro-pyridin-4-yl]-phenyl}-ethyl)-6-phenyl-[1,3]oxazinan-2-one]
Average % control inhibition at 100 nM (11β-HSD1 [6]): 54 % control

C[C@@H](c1ccc(-c2ccn(CC(C)(C)CO)c(=O)c2)cc1)N1CC[C@](CC(C)(C)O)(c2ccccc2)OC1=O [Example 90, 3-((S)-1-{4-[1-(3-Hydroxy-2,2-dimethyl-propyl)-2-oxo-1,2-dihydro-pyridin-4-yl]-phenyl}-ethyl)-(S)-6-(2-hydroxy-2-methyl-propyl)-6-phenyl-[1,3]oxazinan-2-one]
Average % control inhibition at 100 nM (11β-HSD1 [6]): 4 % control
